Assays:
[1] = test system: Adenovirus Infection of Bladder Epithelium; settings: pretreatment agent; Ramesh et al., Molecular Therapy 2004; cited from earlier work
[2] = test system: Pseudomonas aeruginosa; test: Antimicrobial testing, time-kill log reduction against P. aeruginosa; assay type: cell-based; settings: for Concentration (CFU/mL): 5 ml of 1% Compound 3 solution + 20 ml PBS pH 7.2; for Log Reduction: log inoculum verification minus sample log recovery
Procedure: (§1) The preferred embodiment was tested for antimicrobial activity using the following procedure.
(§2) A 1% solution of Compound 3 was prepared in DPBS (Dulbecco's phosphate buffered saline). A 25 ml mixture of the 1% Compound 3 and PBS (phosphate buffered saline, pH 7.2 was prepared by mixing 5 ml of the 1% Compound 3 solution and 20 ml of the PBS.
(§3) A 10 ml aliquot of the above mixture was placed into each of two sterile test tubes. One test tube was inoculated with 0.1 ml of S. aureus and the other with 0.1 ml of P. aeruginosa, such that there was a final concentration of 10^6 colony-forming units (CFU)/0.1 mls.
(§4) A various time points, 1.0 ml of each inoculated test sample were removed, diluted 10× with 0.45% saline and plated on trypticase soy agar (TSA) plates.
(§5) Samples of PBS was treated in the same manner. At time points 5 mins and 60 mins, two 1 ml samples were taken and diluted 1 × and one spiked with a 0.1 ml aliquot of the S. aureus and the other spiked with 0.1 ml of the P aeruginosa.
(§6) The plates were incubated at 30-35° C. for not less than 24 hours. Concentration of CFU in the samples taken at each time point were enumerated by standard methods. The log reduction was calculated for each time period and organism. The log reduction was calculated using the formula: Log reduction=Log inoculums verification−sample log recovery.

[3] = test system: Staphylococcus aureus; test: Antimicrobial testing, time-kill log reduction against S. aureus; assay type: cell-based; settings: for Concentration (CFU/mL): 5 ml of 1% Compound 3 solution + 20 ml PBS pH 7.2; for Log Reduction: log inoculum verification minus sample log recovery
Procedure: as §1, §2, §3, §4, §5, §6

[4] = test system: Listeria Monocytogenes; settings: in conjunction with certain organic acids; J. Applied Bacteriol. 1996; cited from earlier work
[5] = antimicrobial if greater than 5 log reduction

Compound	increasing the effectiveness of gene and oncolytic virus therapy [1]	Concentration (CFU/mL) ([2]; 5 minutes)	Log Reduction ([2]; 5 minutes)	Concentration (CFU/mL) ([2]; 15 minutes)	Log Reduction ([2]; 15 minutes)	Concentration (CFU/mL) ([2]; 30 minutes)	Log Reduction ([2]; 30 minutes)	Concentration (CFU/mL) ([2]; 60 minutes)	antimicrobial effect [2, 5]	Concentration (CFU/mL) ([3]; 5 minutes)	Log Reduction ([3]; 5 minutes)	Concentration (CFU/mL) ([3]; 15 minutes)	Log Reduction ([3]; 15 minutes)	Concentration (CFU/mL) ([3]; 30 minutes)	Log Reduction ([3]; 30 minutes)	Concentration (CFU/mL) ([3]; 60 minutes)	Log Reduction ([3]; 60 minutes)	antimicrobial effect [3, 5]	anti-microbial against Listeria Monocytogenes [4]
CCCCCCCCCCCCO[C@@H]1O[C@H](CO)[C@@H](O[C@H]2O[C@H](CO)[C@@H](O)[C@H](O)[C@H]2O)[C@H](O)[C@H]1O [dodecyl maltoside]	effective	–	–	–	–	–	–	–	–	–	–	–	–	–	–	–	–	–	–
CCCCCCCCCCCC(=O)OCC1O[C@H](O[C@@]2(CCl)O[C@H](CCl)C(O)C2O)C(O)C(O)[C@H]1Cl (stereo in doubt) [Compound 3, 1′,6′-Dichloro-1′,6′-dideoxy-β-D-fructofuranosyl-4-chloro-4-deoxy-6-O-monododecanoate-α-D-galactopyranoside]	–	1.53 × 10^6 CFU/mL	3.5	1.1 × 10^6 CFU/mL	3.7	1.21 × 10^6 CFU/mL	3.6	TNTC*	not	6.9 × 10^5 CFU/mL	4	4.3 × 10^4 CFU/mL	5.2	1.41 × 10^4 CFU/mL	5.7	2.9 × 10^3 CFU/mL	6.3	has antimicrobial effect	–
sucrose monolaurate	effective	–	–	–	–	–	–	–	–	–	–	–	–	–	–	–	–	–	effective anti-microbial
